Measurements as given in patent publication US20160031935A1, “SMALL MOLECULE MODULATORS OF PCSK9 AND METHODS OF USE THEREOF” (ADAERATA, LIMITED PARTNERSHIP, priority 2013, published 2016).

Assays:
[1] = biological target: T1, WT PCSK9(+V5) (Homo sapiens, UniProt Q8NBP7); assay: PCSK9 secretion assay: PCSK9 in media and cells by ELISA (media/cell ratio); format: cell-based; details: 10 μM; HepG2 cells stably expressing WT PCSK9(+V5), 24 h
T1 construct: expressed in transfected cells
Description: In 12-well plates (Greiner BioOne™), HepG2 cells stably expressing PCSK9(+V5) were seeded at a density of 1×10^6/well in complete media and incubated for 20 hours, at 37° C. Cells were rinsed once with 2 ml/well of D-PBS (+Calcium, +Magnesium) (Wisent) followed by addition of 0.5 ml/well incubation media (+0.07% BSA) containing the inhibitory compounds at various concentrations (11, 33, 100 μM) or DMSO control (0.4% final) and overnight (24 hours) incubation. 24 hours-conditioned media was collected, centrifuged at 130×g for 5 minutes to remove cell debris, and the supernatant removed for PCSK9 quantification by ELISA (100 μl of 1:30 dilution). Cells were washed once with ice-cold D-PBS (+Calcium, +Magnesium) (Wisent), then lysed with 250 ul/well of radioimmunoprecipitation assay buffer (RIPA) (50 mM Tris-HCl, pH 7.8, 150 mM NaCl, 1% Nonident P-40, 0.5% sodium deoxycholate, 0.1% SDS) containing a mixture of protease inhibitors (Roche Applied Science) for 30 min on ice, and pelleted at 11,300×g for 5 minutes. Supernatant was removed for cellular PCSK9 quantification by ELISA (100 μl of 1:20 dilution) and total protein determination by the Bio-Rad™ DC Protein assay (Bio-Rad) (4 μl cell lysate in duplicate) (Dubuc G, Tremblay M, Pare G, Jacques H, Hamelin J, Benjannet S, Boulet L, Genest J, Bernier L, Seidah N G, Davignon J. 2010. A new method for measurement of total plasma PCSK9: clinical applications. J Lipid Res. 51:140-149). The ratio of PCSK9 concentration of media (M) over cells (C) was determined and compounds which decreased M/C by >30% were considered active.
HepG2 cells stably expressing WT PCSK9(+V5) were incubated overnight (24 hours) in the absence (DMSO) or presence of 10 μM, 100 μM or increasing concentrations (11, 33, 100 μM) of a tested compound. 24 hours-conditioned media was collected, centrifuged, and the supernatant removed for PCSK9 quantification by ELISA (100 μl of 1:30 dilution). Cells were lysed with 250 ul/well of radioimmunoprecipitation assay buffer (RIPA) (50 mM Tris-HCl, pH 7.8, 150 mM NaCl, 1% Nonident P-40, 0.5% sodium deoxycholate, 0.1% SDS) containing a mixture of protease inhibitors (Roche Applied Science), and pelleted at 11,300×g for 5 minutes. Supernatant was removed for cellular PCSK9 quantification by ELISA (100 μl of 1:20 dilution) and total protein determination by the Bio-Rad DC Protein assay (Bio-Rad) (Dubuc G, Tremblay M, Pare G, Jacques H, Hamelin J, Benjannet S, Boulet L, Genest J, Bernier L, Seidah N G, Davignon J. 2010. A new method for measurement of total plasma PCSK9: clinical applications. J Lipid Res. 51:140-149). Over 165 compounds were subjected to a first screen at 100 μM by PCSK9 secretion assay.

[2] = tested on: cell surface LDLR activity; assay: Dil-LDL uptake assay in HepG2 naïve cells; format: cell-based, human; details: for activity at 10 µM: Homo sapiens, 24 h, HepG2 cells, read-out: Dil-LDL uptake (% DMSO Cnt)
Description: HepG2 naive cells and HEK293 naive cells were plated in 96-well plates (CellBind black plate with clear bottom (Corning; Cat #3340)) at a density of 25,000 cells/well, in complete media (DMEM high glucose (+sodium pyruvate for HepG2) (Wisent)+10% FBS). After 20 hours, cells were washed for 30 min with serum free DMEM media (100 μl/well), the wash media was removed and replaced with 100 μl/well of incubation media (DMEM high glucose (+sodium pyruvate for HepG2) (Wisent)+0.07% BSA (Sigma-Aldrich)) containing compound at various concentrations ([…]) or DMSO control (0.4% final). Each condition was prepared in triplicates. After 6 hours incubation at 37° C., Dil-LDL (Biomedical Technologies (Cat #BT-904)) was added to the cell media (5 μl) at 5 μg/ml final concentration, and cells returned to tissue culture incubator for another 18 hours (a total of 24 hours incubation with the compounds). After 2 washes (200 μl/well) with ice-cold D-PBS (Wisent) and aspiration of the final wash, plates were scanned (bottom read) on a SpectraMax GeminiEM™ plate reader (Molecular Devices). For each well, raw Dil-LDL uptake was measured as the average fluorescence intensity (RFU) (ex: 520 nm/em: 575 nm, cutoff: 550 nm) of 9 readings in 3 different points in the well. Dil-LDL uptake in each well was corrected for total number of cells by performing a CyQuant™ cell assay (Invitrogen; Cat #C7026). Namely, after recording the Dil fluorescence, the plate was frozen overnight at −80° C. The next day, the plates were thawed at room temperature, the cells lysed according to the manufacturer's protocol, and the number of cells/well was determined by measuring the fluorescence (RFU) of the CyQuant green fluorescent dye bound to the cellular nucleic acids (ex: 485 nm/em: 538 nm, cutoff: 515 nm). For each condition, Dil-RFU was divided by CyQuant-RFU. Corrected dil-LDL uptake is reported as % DMSO control and was obtained from triplicate wells.
The PCSK9 inhibitory compounds were also characterized using a Dil-LDL fluorescent uptake assay as described in Poirier et al., J. Biol. Chem. 284: 28856-28864, 2009. The method entails the fluorescence measurement of the Dil-LDL cellular incorporation via LDLR internalization (a measurement of cell surface LDLR activity) in human hepatocyte derived HuH7 or HepG2 cell lines, or human embryonic HEK293 cells, in the presence or absence of compounds.
HepG2 naïve cells and HEK293 naïve cells were plated in 96-well plates (CellBind™ black plate with clear bottom (Corning; Cat #3340)). At 20 h post-seeding, cells were incubated in the absence (DMSO or negative control) or in the presence of different concentrations of compounds. Each condition was prepared in triplicates. After 6 hours incubation, Dil-LDL (Biomedical Technologies (Cat #BT-904)) was added to the cell media, and cells returned to tissue culture incubator for another 18 hours. Plates were scanned (bottom read) on a SpectraMax GeminiEM™ plate reader (Molecular Devices). For each well, raw Dil-LDL uptake was measured as the average fluorescence intensity (RFU) (ex: 520 nm/em: 575 nm, cutoff: 550 nm) of 9 readings in 3 different points in the well. Dil-LDL uptake in each well was corrected for total number of cells by performing a CyQuant™ cell assay (Invitrogen, Cat #C7026) according to the manufacturer's instructions. Corrected Dil-LDL uptake is reported as a % of DMSO control and was obtained from triplicate wells.

T1 sequence (Q8NBP7 153-692): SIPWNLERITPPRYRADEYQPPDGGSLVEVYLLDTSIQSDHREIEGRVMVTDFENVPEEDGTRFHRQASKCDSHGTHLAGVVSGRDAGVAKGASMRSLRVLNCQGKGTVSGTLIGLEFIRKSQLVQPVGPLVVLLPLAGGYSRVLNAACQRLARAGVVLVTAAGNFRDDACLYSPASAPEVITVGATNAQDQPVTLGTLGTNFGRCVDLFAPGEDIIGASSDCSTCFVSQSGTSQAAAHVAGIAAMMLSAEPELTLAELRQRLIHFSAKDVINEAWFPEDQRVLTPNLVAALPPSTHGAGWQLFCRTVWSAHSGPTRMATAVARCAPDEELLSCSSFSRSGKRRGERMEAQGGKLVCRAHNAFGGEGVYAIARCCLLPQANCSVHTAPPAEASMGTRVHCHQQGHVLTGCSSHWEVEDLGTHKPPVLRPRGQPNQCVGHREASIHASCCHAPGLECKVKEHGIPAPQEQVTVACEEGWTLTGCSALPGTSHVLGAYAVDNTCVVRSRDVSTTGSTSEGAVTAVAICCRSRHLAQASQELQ

SMILES	Secretion Inhibition (% Activity) [1]	activity at 10 µM [2]	Dil-LDL uptake (FIG. 5A, in words) ([2]; 33.3 μM, HepG2 naïve cells)
CCCCCCCCCC(=O)N[C@H](C(=O)N[C@@H](Cc1ccccc1)C(=O)N[C@H](C)C(=O)N[C@@H](CCC(N)=O)C(O)C(F)(F)F)C(C)C (single isomer, unassigned) [Example 60]	73%	224 ± 43%	–
CC(C)[C@H](NC(=O)c1ccc(-c2ccccc2)cc1)C(=O)N[C@@H](Cc1ccccc1)C(=O)NC1(C(=O)N[C@@H](CCC(N)=O)C(O)C(F)(F)F)CCC1 (single isomer, unassigned) [Example 66]	92%	237 ± 59%	–
CC(C)[C@H](NC(=O)c1ccc(-c2ccccc2)cc1)C(=O)N[C@@H](Cc1ccccc1)C(=O)N[C@@H](C)C(=O)NC(CCC(N)=O)C(O)C(F)(F)F (stereo partly drawn) [Example 24, N-((2S)-1-(((2S)-1-(((2S)-1-((6-Amino-1,1,1-trifluoro-2-hydroxy-6-oxohexan-3-yl)amino)-1-oxopropan-2-yl)amino)-1-oxo-3-phenylpropan-2-yl)amino)-3-methyl-1-oxobutan-2-yl)-[1,1′-biphenyl]-4-carboxamide]	88%	224 ± 33%	increase in the Dil-LDL uptake
CC(C)[C@H](NC(=O)c1ccc(C2(C(F)(F)F)N=N2)cc1)C(=O)N[C@@H](Cc1ccccc1)C(=O)N[C@@H](C)C(=O)NC(CCC(N)=O)C(O)C(F)(F)F (stereo partly drawn) [Example 29, N-((2S)-1-(((2S)-1-(((2S)-1-((6-Amino-1,1,1-trifluoro-2-hydroxy-6-oxohexan-3-yl)amino)-1-oxopropan-2-yl)amino)-1-oxo-3-phenylpropan-2-yl)amino)-3-methyl-1-oxobutan-2-yl)-4-(3-(trifluoromethyl)-3H-diazirin-3-yl)benzamide]	83%	207 ± 21%	–
CC(C)[C@H](NC(=O)c1ccc(-c2ccc(F)cc2)cc1)C(=O)N[C@@H](Cc1ccccc1)C(=O)N[C@@H](C)C(=O)NC(CCC(N)=O)C(O)C(F)(F)F (stereo partly drawn) [Example 52, N-((2S)-1-(((2S)-1-(((2S)-1-((6-Amino-1,1,1-trifluoro-2-hydroxy-6-oxohexan-3-yl)amino)-1-oxopropan-2-yl)amino)-1-oxo-3-phenylpropan-2-yl)amino)-3-methyl-1-oxobutan-2-yl)-4′-fluoro-[1,1′-biphenyl]-4-carboxamide]	79%	254 ± 71%	–
CCCCCCCCCC(=O)N[C@H](C(=O)N[C@@H](Cc1ccccc1)C(=O)N[C@H](C(=O)NC(CCC(N)=O)C(O)C(F)(F)F)C(C)C)C(C)C (stereo partly drawn) [Example 58, N-((2S)-1-(((2S)-1-(((2S)-1-((6-amino-1,1,1-trifluoro-2-hydroxy-6-oxohexan-3-yl)amino)-3-methyl-1-oxobutan-2-yl)amino)-1-oxo-3-phenylpropan-2-yl)amino)-3-methyl-1-oxobutan-2-yl)decanamide]	81%	261 ± 48%	–
CCCCCCCCCC(=O)N[C@H](C(=O)N[C@@H](Cc1ccccc1)C(=O)N[C@@H](Cc1ccccc1)C(=O)NC(CCC(N)=O)C(O)C(F)(F)F)C(C)C (stereo partly drawn) [Example 59, N-((2S)-1-(((2S)-1-(((2S)-1-((6-Amino-1,1,1-trifluoro-2-hydroxy-6-oxohexan-3-yl)amino)-1-oxo-3-phenylpropan-2-yl)amino)-1-oxo-3-phenylpropan-2-yl)amino)-3-methyl-1-oxobutan-2-yl)decanamide]	82%	253 ± 75%	–
CC(C)[C@H](NC(=O)c1ccc(-c2ccccc2)cc1)C(=O)N[C@H](Cc1ccccc1)C(=O)N[C@@H](C)C(=O)NC(CCC(N)=O)C(O)C(F)(F)F (stereo partly drawn) [Example 70, N-((2S)-1-(((2R)-1-(((2S)-1-((6-Amino-1,1,1-trifluoro-2-hydroxy-6-oxohexan-3-yl)amino)-1-oxopropan-2-yl)amino)-1-oxo-3-phenylpropan-2-yl)amino)-3-methyl-1-oxobutan-2-yl)-[1,1′-biphenyl]-4-carboxamide]	74%	224 ± 47%	–
CSCC[C@H](NC(=O)c1ccc(-c2ccccc2)cc1)C(=O)N[C@@H](Cc1ccccc1)C(=O)N[C@@H](C)C(=O)NC(CCC(N)=O)C(O)C(F)(F)F (stereo partly drawn) [Example 75, N-((5S,8S,11S)-17-amino-8-benzyl-11-methyl-6,9,12,17-tetraoxo-14-(2,2,2-trifluoro-1-hydroxyethyl)-2-thia-7,10,13-triazaheptadecan-5-yl)-[1,1′-biphenyl]-4-carboxamide]	100%	172 ± 48%	–
